Measurements as given in article PMC11284788, “NN1213 – A Potent, Long-Acting, and Selective Analog of Human Amylin” (Journal of Medicinal Chemistry, 2024).
Where two headings read alike, the source gives them in different places. Numbered stars: 1 amine (or outer) side, 2 acyl side, 3 side chain; on linkers, the order of the positions; unused ones are H or OH. Bridge positions count the residues as written; N and C are the ends. Side chains are listed from the residue outwards. Peptide text beside a SMILES is read from it. * marks the point of attachment. C20 diacid = O=C(O)CCCCCCCCCCCCCCCCCCC(=O)*; γGlu = O=C(O)[C@H](CCC(=O)[*:2])N[*:1]; AEEA = NCCOCCOCC(=O)O

Experiments:
hCTR = target: T1, hCTR (Homo sapiens, UniProt P30988); test: cAMP-responsive element luciferase reporter assay, human CTR; format: cell-based; details: luciferase (human receptor assay)
T1 sequence (P30988 25-474): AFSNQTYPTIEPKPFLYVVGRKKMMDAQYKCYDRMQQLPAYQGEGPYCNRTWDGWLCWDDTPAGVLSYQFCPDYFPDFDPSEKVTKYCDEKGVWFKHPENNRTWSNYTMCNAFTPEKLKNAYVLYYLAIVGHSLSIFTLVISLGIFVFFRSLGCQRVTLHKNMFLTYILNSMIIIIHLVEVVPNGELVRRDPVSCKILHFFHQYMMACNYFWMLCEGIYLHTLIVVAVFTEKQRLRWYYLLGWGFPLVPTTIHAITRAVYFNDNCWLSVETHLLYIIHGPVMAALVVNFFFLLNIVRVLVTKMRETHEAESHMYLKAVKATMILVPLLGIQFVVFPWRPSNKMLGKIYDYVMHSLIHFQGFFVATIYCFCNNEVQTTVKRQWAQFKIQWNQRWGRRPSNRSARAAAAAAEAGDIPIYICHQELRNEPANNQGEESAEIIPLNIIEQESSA

rat AMY3R = target: T2, rat AMY3R (Rattus norvegicus, UniProt P32214+Q9JJ73); test: cAMP FlashPlate assay, rat AMY3R; format: cell-based; details: ratio of cAMP EC50 values
T2 construct: expressed in transfected cells; host or cells: BHK tk-ts 13, transient co-transfection (FuGENE 6)
T2 sequence (P32214 25-479 isoform P32214-2 limits assumed): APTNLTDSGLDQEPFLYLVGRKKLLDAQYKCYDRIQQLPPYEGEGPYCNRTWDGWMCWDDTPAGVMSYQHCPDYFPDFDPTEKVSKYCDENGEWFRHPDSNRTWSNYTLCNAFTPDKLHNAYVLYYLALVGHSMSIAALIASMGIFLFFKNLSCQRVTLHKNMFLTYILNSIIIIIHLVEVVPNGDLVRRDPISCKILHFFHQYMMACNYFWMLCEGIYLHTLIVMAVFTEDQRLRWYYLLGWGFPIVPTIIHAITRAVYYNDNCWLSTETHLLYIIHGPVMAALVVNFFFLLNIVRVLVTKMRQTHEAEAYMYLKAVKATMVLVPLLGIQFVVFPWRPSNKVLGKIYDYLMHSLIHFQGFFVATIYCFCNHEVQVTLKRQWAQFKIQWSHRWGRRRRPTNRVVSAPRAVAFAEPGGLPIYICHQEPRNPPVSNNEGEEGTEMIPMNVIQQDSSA
T2 sequence (Q9JJ73 23-147 partner): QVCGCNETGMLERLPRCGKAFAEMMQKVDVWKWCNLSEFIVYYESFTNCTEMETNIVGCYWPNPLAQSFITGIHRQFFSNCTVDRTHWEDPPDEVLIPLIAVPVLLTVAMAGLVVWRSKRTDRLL

rats = test: Acute food intake in rats; format: in vivo, rat; details: single sc injection of 30 nmol/kg, relative to vehicle, mean ± SEM, n = 5–7 per group
[1] = Tables S12 and S14, read-out: hCTR pEC50 (converted)
[2] = BHK cells stably expressing hCTR and CRE-luciferase, 3 h, 37 °C, 10% FBS, read-out: hCTR EC50

SMILES	EC50 (hCTR; [1])	EC50 (hCTR; [2])	hCTR pEC50 (hCTR; Tables S12 and S14)	further results
CC[C@H](C)[C@H](NC(=O)[C@@H]1CCCN1C(=O)CNC(=O)[C@H](Cc1ccccc1)NC(=O)[C@H](CC(N)=O)NC(=O)[C@@H]1CCCN1C(=O)[C@H](CO)NC(=O)[C@H](CO)NC(=O)[C@H](Cc1c[nH]cn1)NC(=O)[C@H](CCCNC(=N)N)NC(=O)[C@H](CC(C)C)NC(=O)[C@H](Cc1ccccc1)NC(=O)[C@H](CC(=O)O)NC(=O)[C@H](C)NC(=O)[C@H](CC(C)C)NC(=O)[C@H](CCCNC(=N)N)NC(=O)[C@H](CCC(N)=O)NC(=O)[C@@H](NC(=O)[C@H](C)NC(=O)[C@@H]1CSSC[C@H](NC(=O)[C@@H](N)CCCCNC(=O)CC[C@H](NC(=O)CC[C@H](NC(=O)CCCCCCCCCCCCCCCCCCC(=O)O)C(=O)O)C(=O)O)C(=O)N[C@@H](CC(N)=O)C(=O)N[C@@H]([C@@H](C)O)C(=O)N[C@@H](C)C(=O)N[C@@H]([C@@H](C)O)C(=O)N1)[C@@H](C)O)C(=O)N[C@@H](CC(C)C)C(=O)N[C@@H](CO)C(=O)N[C@@H](CO)C(=O)N[C@H](C(=O)N[C@@H](CC(N)=O)C(=O)N[C@H](C(=O)NCC(=O)N[C@@H](CO)C(=O)N[C@@H](CC(=O)O)C(=O)N[C@H](C(=O)N[C@@H](Cc1ccc(O)cc1)C(N)=O)[C@@H](C)O)C(C)C)[C@@H](C)O [Peptide 3] (H-K([γGlu-γGlu-C20 diacid])CNTATCATQRLADFLRHSSPNFGPILSSTNVGSDTY-NH2; disulfide 2-7)	3.02 nM	3 nM		
CC(C)C[C@H](NC(=O)[C@H](CCCNC(=N)N)NC(=O)[C@H](CCC(N)=O)NC(=O)[C@@H](NC(=O)[C@H](C)NC(=O)[C@@H]1CSSC[C@H](NC(=O)[C@@H](N)CCCCNC(=O)CC[C@H](NC(=O)CC[C@H](NC(=O)CCCCCCCCCCCCCCCCCCC(=O)O)C(=O)O)C(=O)O)C(=O)N[C@@H](CC(N)=O)C(=O)N[C@@H]([C@@H](C)O)C(=O)N[C@@H](C)C(=O)N[C@@H]([C@@H](C)O)C(=O)N1)[C@@H](C)O)C(=O)N[C@@H](C)C(=O)N[C@@H](CC(=O)O)C(=O)N[C@@H](Cc1ccccc1)C(=O)N[C@@H](CC(C)C)C(=O)N[C@@H](CCCNC(=N)N)C(=O)N[C@@H](Cc1c[nH]cn1)C(=O)N[C@@H](CO)C(=O)N[C@@H](CO)C(=O)N1CCC[C@H]1C(=O)N[C@@H](CC(N)=O)C(=O)N[C@@H](Cc1ccccc1)C(=O)NCC(=O)N[C@@H](C)C(=O)N1CCC[C@H]1C(=O)N[C@@H](CC(C)C)C(=O)N[C@@H](CO)C(=O)N[C@@H](CO)C(=O)N[C@H](C(=O)N[C@@H](CC(N)=O)C(=O)N[C@H](C(=O)NCC(=O)N[C@@H](CO)C(=O)N[C@@H](CC(=O)O)C(=O)N[C@H](C(=O)N[C@@H](Cc1ccc(O)cc1)C(N)=O)[C@@H](C)O)C(C)C)[C@@H](C)O [Peptide 5] (H-K([γGlu-γGlu-C20 diacid])CNTATCATQRLADFLRHSSPNFGAPLSSTNVGSDTY-NH2; disulfide 2-7)	2.57 nM	2.58 nM		
CC[C@H](C)[C@H](NC(=O)[C@H](C)NC(=O)CNC(=O)[C@H](Cc1ccccc1)NC(=O)[C@H](CC(N)=O)NC(=O)[C@@H]1CCCN1C(=O)[C@H](CO)NC(=O)[C@H](CO)NC(=O)[C@H](Cc1c[nH]cn1)NC(=O)[C@H](CCCNC(=N)N)NC(=O)[C@H](CC(C)C)NC(=O)[C@H](Cc1ccccc1)NC(=O)[C@H](CC(=O)O)NC(=O)[C@H](C)NC(=O)[C@H](CC(C)C)NC(=O)[C@H](CCCNC(=N)N)NC(=O)[C@H](CCC(N)=O)NC(=O)[C@@H](NC(=O)[C@H](C)NC(=O)[C@@H]1CSSC[C@H](NC(=O)[C@@H](N)CCCCNC(=O)CC[C@H](NC(=O)CC[C@H](NC(=O)CCCCCCCCCCCCCCCCCCC(=O)O)C(=O)O)C(=O)O)C(=O)N[C@@H](CC(N)=O)C(=O)N[C@@H]([C@@H](C)O)C(=O)N[C@@H](C)C(=O)N[C@@H]([C@@H](C)O)C(=O)N1)[C@@H](C)O)C(=O)N1CCC[C@H]1C(=O)N[C@@H](CO)C(=O)N[C@@H](CO)C(=O)N[C@H](C(=O)N[C@@H](CC(N)=O)C(=O)N[C@H](C(=O)NCC(=O)N[C@@H](CO)C(=O)N[C@@H](CC(=O)O)C(=O)N[C@H](C(=O)N[C@@H](Cc1ccc(O)cc1)C(N)=O)[C@@H](C)O)C(C)C)[C@@H](C)O [Peptide 6] (H-K([γGlu-γGlu-C20 diacid])CNTATCATQRLADFLRHSSPNFGAIPSSTNVGSDTY-NH2; disulfide 2-7)				ratio rCTR/rAMY3R (rat AMY3R): 1338
CC(C)C[C@H](NC(=O)[C@H](CCCNC(=N)N)NC(=O)[C@H](CCC(N)=O)NC(=O)[C@@H](NC(=O)[C@H](C)NC(=O)[C@@H]1CSSC[C@H](NC(=O)[C@@H](N)CCCCNC(=O)CC[C@H](NC(=O)CC[C@H](NC(=O)CCCCCCCCCCCCCCCCCCC(=O)O)C(=O)O)C(=O)O)C(=O)N[C@@H](CC(N)=O)C(=O)N[C@@H]([C@@H](C)O)C(=O)N[C@@H](C)C(=O)N[C@@H]([C@@H](C)O)C(=O)N1)[C@@H](C)O)C(=O)N[C@@H](C)C(=O)N[C@@H](CC(=O)O)C(=O)N[C@@H](Cc1ccccc1)C(=O)N[C@@H](CC(C)C)C(=O)N[C@@H](CCCNC(=N)N)C(=O)N[C@@H](Cc1c[nH]cn1)C(=O)N[C@@H](CO)C(=O)N[C@@H](CO)C(=O)N[C@@H](CC(N)=O)C(=O)N1CCC[C@H]1C(=O)N[C@@H](Cc1ccccc1)C(=O)NCC(=O)N[C@@H](C)C(=O)N1CCC[C@H]1C(=O)N[C@@H](CC(C)C)C(=O)N[C@@H](CO)C(=O)N[C@@H](CO)C(=O)N[C@H](C(=O)N[C@@H](CC(N)=O)C(=O)N[C@H](C(=O)NCC(=O)N[C@@H](CO)C(=O)N[C@@H](CC(=O)O)C(=O)N[C@H](C(=O)N[C@@H](Cc1ccc(O)cc1)C(N)=O)[C@@H](C)O)C(C)C)[C@@H](C)O [Peptide 7] (H-K([γGlu-γGlu-C20 diacid])CNTATCATQRLADFLRHSSNPFGAPLSSTNVGSDTY-NH2; disulfide 2-7)			8.86	
CC[C@H](C)[C@H](NC(=O)[C@H](C)NC(=O)CNC(=O)[C@H](Cc1ccccc1)NC(=O)[C@H](CC(N)=O)NC(=O)[C@@H]1CCCN1C(=O)[C@H](CO)NC(=O)[C@H](CO)NC(=O)[C@H](Cc1c[nH]cn1)NC(=O)[C@H](CCCNC(=N)N)NC(=O)[C@H](CC(C)C)NC(=O)[C@H](Cc1ccccc1)NC(=O)[C@H](CC(N)=O)NC(=O)[C@H](C)NC(=O)[C@H](CC(C)C)NC(=O)[C@H](CCCNC(=N)N)NC(=O)[C@H](CCC(N)=O)NC(=O)[C@@H](NC(=O)[C@H](C)NC(=O)[C@@H]1CSSC[C@H](NC(=O)[C@H](CCCCN)NC(=O)COCCOCCNC(=O)CC[C@H](NC(=O)CCCCCCCCCCCCCCCCCCC(=O)O)C(=O)O)C(=O)N[C@@H](CC(N)=O)C(=O)N[C@@H]([C@@H](C)O)C(=O)N[C@@H](C)C(=O)N[C@@H]([C@@H](C)O)C(=O)N1)[C@@H](C)O)C(=O)N1CCC[C@H]1C(=O)N[C@@H](CO)C(=O)N[C@@H](CO)C(=O)N[C@H](C(=O)N[C@@H](CC(N)=O)C(=O)N[C@H](C(=O)NCC(=O)N[C@@H](CO)C(=O)N[C@@H](Cc1c[nH]cn1)C(=O)N[C@H](C(=O)N[C@@H](Cc1ccc(O)cc1)C(N)=O)[C@@H](C)O)C(C)C)[C@@H](C)O [Peptide 18] ({C20 diacid-γGlu-AEEA}-KCNTATCATQRLANFLRHSSPNFGAIPSSTNVGSHTY-NH2; disulfide 2-7; N-terminus assumed)				Acute food intake reduction 24–48 h (rats): 3 ± 6%
CC[C@H](C)[C@H](NC(=O)[C@H](C)NC(=O)CNC(=O)[C@H](Cc1ccccc1)NC(=O)[C@H](CC(N)=O)NC(=O)[C@@H]1CCCN1C(=O)[C@H](CO)NC(=O)[C@H](CO)NC(=O)[C@H](Cc1c[nH]cn1)NC(=O)[C@H](CCCNC(=N)N)NC(=O)[C@H](CC(C)C)NC(=O)[C@H](Cc1ccccc1)NC(=O)[C@H](CCC(=O)O)NC(=O)[C@H](C)NC(=O)[C@H](CC(C)C)NC(=O)[C@H](CCCNC(=N)N)NC(=O)[C@H](CCC(N)=O)NC(=O)[C@@H](NC(=O)[C@H](C)NC(=O)[C@@H]1CSSC[C@H](NC(=O)[C@@H](N)CCCCNC(=O)CC[C@H](NC(=O)CCCCCCCCCCCCCCCCCCC(=O)O)C(=O)O)C(=O)N[C@@H](CC(N)=O)C(=O)N[C@@H]([C@@H](C)O)C(=O)N[C@@H](C)C(=O)N[C@@H]([C@@H](C)O)C(=O)N1)[C@@H](C)O)C(=O)N1CCC[C@H]1C(=O)N[C@@H](CO)C(=O)N[C@@H](CO)C(=O)N[C@H](C(=O)N[C@@H](CC(N)=O)C(=O)N[C@H](C(=O)NCC(=O)N[C@@H](CO)C(=O)N[C@@H](CCCNC(=N)N)C(=O)N[C@H](C(=O)N[C@@H](Cc1ccc(O)cc1)C(N)=O)[C@@H](C)O)C(C)C)[C@@H](C)O [Peptide 20] (H-K([γGlu-C20 diacid])CNTATCATQRLAEFLRHSSPNFGAIPSSTNVGSRTY-NH2; disulfide 2-7)		5.2 nM	8.28	
